Source: ChEMBL document CHEMBL4804284
Calls of active or inactive are those of the source. The rule behind the calls is not given here.

Assays:
[1] = biological target: Activin receptor type-1 (Homo sapiens) (UniProt Q04771); test: Inhibition of DNA-tagged human ACVR1 assessed as percent of control at 50000 nM by qPCR analysis relative to control; set-up: scale not given: the % may be the effect or the level left
[2] = biological target: Epidermal growth factor receptor (Homo sapiens) (UniProt P00533); test: Inhibition of DNA-tagged human EGFR assessed as percent of control at 50000 nM by qPCR analysis relative to control; set-up: scale not given: the % may be the effect or the level left
[3] = biological target: Serine/threonine-protein kinase ICK (Homo sapiens) (UniProt Q9UPZ9); test: Inhibition of DNA-tagged human ICK assessed as percent of control at 50000 nM by qPCR analysis relative to control; set-up: scale not given: the % may be the effect or the level left
Sequence of Serine/threonine-protein kinase ICK (Homo sapiens) (Q9UPZ9 whole entry): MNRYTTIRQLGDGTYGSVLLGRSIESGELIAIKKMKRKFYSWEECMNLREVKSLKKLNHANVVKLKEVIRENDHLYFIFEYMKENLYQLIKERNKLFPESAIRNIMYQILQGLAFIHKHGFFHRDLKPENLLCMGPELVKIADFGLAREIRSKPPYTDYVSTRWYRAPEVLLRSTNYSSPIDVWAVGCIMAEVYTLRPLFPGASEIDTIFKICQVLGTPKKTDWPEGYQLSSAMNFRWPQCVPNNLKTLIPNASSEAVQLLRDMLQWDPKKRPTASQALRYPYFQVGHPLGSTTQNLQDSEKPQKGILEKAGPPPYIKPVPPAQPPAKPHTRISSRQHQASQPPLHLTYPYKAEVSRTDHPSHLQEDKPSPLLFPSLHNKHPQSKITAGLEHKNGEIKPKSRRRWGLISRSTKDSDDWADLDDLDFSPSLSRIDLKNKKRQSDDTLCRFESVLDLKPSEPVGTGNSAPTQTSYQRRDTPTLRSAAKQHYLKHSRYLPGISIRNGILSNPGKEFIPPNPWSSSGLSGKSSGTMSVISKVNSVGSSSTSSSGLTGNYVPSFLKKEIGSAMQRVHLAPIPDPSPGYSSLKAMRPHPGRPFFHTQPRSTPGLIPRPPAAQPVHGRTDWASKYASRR

[4] = biological target: Receptor tyrosine-protein kinase erbB-3 (Homo sapiens) (UniProt P21860); test: Inhibition of DNA-tagged human ERBB3 assessed as percent of control at 50000 nM by qPCR analysis relative to control; set-up: scale not given: the % may be the effect or the level left
[5] = biological target: Receptor tyrosine-protein kinase erbB-2 (Homo sapiens) (UniProt P04626); test: Inhibition of DNA-tagged human ERBB2 assessed as percent of control at 50000 nM by qPCR analysis relative to control; set-up: scale not given: the % may be the effect or the level left
[6] = biological target: Insulin receptor-related protein (Homo sapiens) (UniProt P14616); test: Inhibition of DNA-tagged human INSRR assessed as percent of control at 50000 nM by qPCR analysis relative to control; set-up: scale not given: the % may be the effect or the level left
[7] = biological target: TGF-beta receptor type-2 (Homo sapiens) (UniProt P37173); test: Inhibition of DNA-tagged human TGFBR2 assessed as percent of control at 50000 nM by qPCR analysis relative to control; set-up: scale not given: the % may be the effect or the level left
[8] = biological target: Mitogen-activated protein kinase 15 (Homo sapiens) (UniProt Q8TD08); test: Inhibition of DNA-tagged human ERK8 assessed as percent of control at 50000 nM by qPCR analysis relative to control; set-up: scale not given: the % may be the effect or the level left
[9] = biological target: BMP-2-inducible protein kinase (Homo sapiens) (UniProt Q9NSY1); test: Inhibition of DNA-tagged human BIKE assessed as percent of control at 50000 nM by qPCR analysis relative to control; set-up: scale not given: the % may be the effect or the level left
[10] = biological target: Muscle, skeletal receptor tyrosine-protein kinase (Homo sapiens) (UniProt O15146); test: Inhibition of DNA-tagged human MUSK assessed as percent of control at 50000 nM by qPCR analysis relative to control; set-up: scale not given: the % may be the effect or the level left
[11] = test system: Tyrosine-protein kinase ABL1 (Homo sapiens), P00519 [F317I]; test: Inhibition of DNA-tagged non-phosphorylated human ABL1 F317I mutant assessed as percent of control at 50000 nM by qPCR analysis relative to control; set-up: scale not given: the % may be the effect or the level left
Sequence of Tyrosine-protein kinase ABL1 (Homo sapiens), P00519 [F317I] (P00519 whole entry F317I): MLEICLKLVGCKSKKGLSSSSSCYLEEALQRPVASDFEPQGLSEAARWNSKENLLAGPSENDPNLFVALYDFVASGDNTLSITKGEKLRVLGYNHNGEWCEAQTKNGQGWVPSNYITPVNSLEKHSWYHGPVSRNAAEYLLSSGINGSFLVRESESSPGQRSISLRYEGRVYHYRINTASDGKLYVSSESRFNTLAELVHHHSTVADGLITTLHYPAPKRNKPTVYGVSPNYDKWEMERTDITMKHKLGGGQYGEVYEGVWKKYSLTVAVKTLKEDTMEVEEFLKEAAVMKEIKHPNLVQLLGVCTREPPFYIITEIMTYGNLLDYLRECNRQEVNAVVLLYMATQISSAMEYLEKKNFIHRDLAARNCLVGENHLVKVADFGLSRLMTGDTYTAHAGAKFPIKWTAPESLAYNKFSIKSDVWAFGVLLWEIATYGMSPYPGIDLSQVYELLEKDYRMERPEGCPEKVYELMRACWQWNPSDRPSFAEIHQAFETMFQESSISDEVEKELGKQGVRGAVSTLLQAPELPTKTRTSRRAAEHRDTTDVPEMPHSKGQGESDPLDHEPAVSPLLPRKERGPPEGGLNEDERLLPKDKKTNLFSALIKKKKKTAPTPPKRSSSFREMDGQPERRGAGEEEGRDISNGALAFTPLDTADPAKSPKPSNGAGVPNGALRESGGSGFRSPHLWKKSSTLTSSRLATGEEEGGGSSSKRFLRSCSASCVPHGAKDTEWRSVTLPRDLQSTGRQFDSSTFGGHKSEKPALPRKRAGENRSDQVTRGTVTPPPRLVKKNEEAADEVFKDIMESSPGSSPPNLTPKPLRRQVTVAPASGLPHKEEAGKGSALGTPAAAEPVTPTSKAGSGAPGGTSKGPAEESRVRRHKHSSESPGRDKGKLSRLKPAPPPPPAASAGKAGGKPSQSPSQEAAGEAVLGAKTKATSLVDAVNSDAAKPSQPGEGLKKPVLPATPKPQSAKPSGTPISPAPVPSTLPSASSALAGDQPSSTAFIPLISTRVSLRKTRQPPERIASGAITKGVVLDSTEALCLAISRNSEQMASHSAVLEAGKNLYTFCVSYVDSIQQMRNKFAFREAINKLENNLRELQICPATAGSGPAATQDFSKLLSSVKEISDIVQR

[12] = biological target: Serine/threonine-protein kinase LATS1 (Homo sapiens) (UniProt O95835); test: Inhibition of DNA-tagged human LATS1 assessed as percent of control at 50000 nM by qPCR analysis relative to control; set-up: scale not given: the % may be the effect or the level left
[13] = biological target: Vascular endothelial growth factor receptor 3 (Homo sapiens) (UniProt P35916); test: Inhibition of DNA-tagged human FLT4 assessed as percent of control at 50000 nM by qPCR analysis relative to control; set-up: scale not given: the % may be the effect or the level left
[14] = biological target: Serine/threonine-protein kinase N2 (Homo sapiens) (UniProt Q16513); test: Inhibition of DNA-tagged human PKN2 assessed as percent of control at 50000 nM by qPCR analysis relative to control; set-up: scale not given: the % may be the effect or the level left
[15] = biological target: Misshapen-like kinase 1 (Homo sapiens) (UniProt Q8N4C8); test: Inhibition of DNA-tagged human MINK assessed as percent of control at 50000 nM by qPCR analysis relative to control; set-up: scale not given: the % may be the effect or the level left
[16] = test system: Mast/stem cell growth factor receptor Kit (Homo sapiens), P10721 [D816H]; test: Inhibition of DNA-tagged human KIT D816H mutant assessed as percent of control at 50000 nM by qPCR analysis relative to control; set-up: scale not given: the % may be the effect or the level left
[17] = biological target: Dual specificity mitogen-activated protein kinase kinase 2 (Homo sapiens) (UniProt P36507); test: Inhibition of DNA-tagged human MEK2 assessed as percent of control at 50000 nM by qPCR analysis relative to control; set-up: scale not given: the % may be the effect or the level left
[18] = biological target: Casein kinase I isoform epsilon (Homo sapiens) (UniProt P49674); test: Inhibition of DNA-tagged human CSNK1E assessed as percent of control at 50000 nM by qPCR analysis relative to control; set-up: scale not given: the % may be the effect or the level left
[19] = test system: Receptor-type tyrosine-protein kinase FLT3 (Homo sapiens), P36888 [D835Y]; test: Inhibition of DNA-tagged human FLT3 D835Y mutant assessed as percent of control at 50000 nM by qPCR analysis relative to control; set-up: scale not given: the % may be the effect or the level left
[20] = biological target: Mitogen-activated protein kinase 12 (Homo sapiens) (UniProt P53778); test: Inhibition of DNA-tagged human p38-gamma assessed as percent of control at 50000 nM by qPCR analysis relative to control; set-up: scale not given: the % may be the effect or the level left
Sequence of Mitogen-activated protein kinase 12 (Homo sapiens) (P53778 whole entry): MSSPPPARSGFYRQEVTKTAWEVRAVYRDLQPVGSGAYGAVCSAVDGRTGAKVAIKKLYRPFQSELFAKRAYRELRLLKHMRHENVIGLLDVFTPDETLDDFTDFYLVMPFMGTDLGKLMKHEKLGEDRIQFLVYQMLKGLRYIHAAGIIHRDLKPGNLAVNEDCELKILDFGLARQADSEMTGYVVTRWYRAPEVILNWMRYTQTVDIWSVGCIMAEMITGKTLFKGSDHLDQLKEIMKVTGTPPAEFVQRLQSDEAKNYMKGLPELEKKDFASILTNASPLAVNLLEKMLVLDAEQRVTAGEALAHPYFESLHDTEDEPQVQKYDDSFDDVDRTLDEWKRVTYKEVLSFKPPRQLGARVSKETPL

MV4-11 = test: Cytotoxicity against human MV4-11 cells expressing FLT3-ITD at 0.1-100 uM assessed as decrease in cell viability relative to control; format: functional, cell-based
[21] = biological target: Calcium/calmodulin-dependent protein kinase type 1 (Homo sapiens) (UniProt Q14012); test: Inhibition of DNA-tagged human CAMK1 assessed as percent of control at 50000 nM by qPCR analysis relative to control; set-up: scale not given: the % may be the effect or the level left
[22] = biological target: Tyrosine-protein kinase JAK1 (Homo sapiens) (UniProt P23458); test: Inhibition of DNA-tagged human JAK1 JH2 pseudokinase domain assessed as percent of control at 50000 nM by qPCR analysis relative to control; set-up: scale not given: the % may be the effect or the level left
Sequence of Tyrosine-protein kinase JAK1 (Homo sapiens) (P23458 whole entry, the tested form may be a part): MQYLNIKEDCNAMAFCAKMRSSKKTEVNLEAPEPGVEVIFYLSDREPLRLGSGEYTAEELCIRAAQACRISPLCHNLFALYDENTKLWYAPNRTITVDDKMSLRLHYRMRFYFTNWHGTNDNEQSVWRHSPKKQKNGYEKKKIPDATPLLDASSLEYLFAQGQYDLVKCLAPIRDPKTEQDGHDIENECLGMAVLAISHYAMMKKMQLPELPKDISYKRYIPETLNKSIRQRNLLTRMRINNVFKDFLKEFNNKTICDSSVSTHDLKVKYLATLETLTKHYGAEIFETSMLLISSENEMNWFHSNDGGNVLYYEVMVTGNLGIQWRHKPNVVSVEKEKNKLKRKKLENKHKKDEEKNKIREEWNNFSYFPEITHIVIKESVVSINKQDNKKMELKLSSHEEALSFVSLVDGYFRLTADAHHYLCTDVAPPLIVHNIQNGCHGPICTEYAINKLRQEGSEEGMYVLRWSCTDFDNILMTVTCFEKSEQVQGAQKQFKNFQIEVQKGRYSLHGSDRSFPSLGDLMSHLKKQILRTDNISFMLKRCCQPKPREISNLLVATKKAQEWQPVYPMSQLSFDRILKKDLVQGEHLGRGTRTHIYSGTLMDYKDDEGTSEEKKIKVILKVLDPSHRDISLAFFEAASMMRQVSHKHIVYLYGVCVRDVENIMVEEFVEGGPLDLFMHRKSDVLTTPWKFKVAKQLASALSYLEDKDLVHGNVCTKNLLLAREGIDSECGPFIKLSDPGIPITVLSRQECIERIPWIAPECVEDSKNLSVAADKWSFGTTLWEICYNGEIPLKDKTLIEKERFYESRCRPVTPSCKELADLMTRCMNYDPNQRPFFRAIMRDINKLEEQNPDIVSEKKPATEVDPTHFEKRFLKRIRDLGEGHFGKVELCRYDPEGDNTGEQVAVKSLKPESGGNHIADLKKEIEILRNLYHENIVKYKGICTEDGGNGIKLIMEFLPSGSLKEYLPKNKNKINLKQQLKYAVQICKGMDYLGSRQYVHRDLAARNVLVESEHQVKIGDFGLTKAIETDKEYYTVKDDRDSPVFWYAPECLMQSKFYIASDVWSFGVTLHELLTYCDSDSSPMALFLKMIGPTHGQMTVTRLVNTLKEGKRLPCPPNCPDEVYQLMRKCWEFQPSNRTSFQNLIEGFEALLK

[23] = biological target: Cyclin-dependent kinase 2 (Homo sapiens) (UniProt P24941); test: Inhibition of DNA-tagged human CDK2 assessed as percent of control at 50000 nM by qPCR analysis relative to control; set-up: scale not given: the % may be the effect or the level left
[24] = biological target: Death-associated protein kinase 2 (Homo sapiens) (UniProt Q9UIK4); test: Inhibition of DNA-tagged human DAPK2 assessed as percent of control at 50000 nM by qPCR analysis relative to control; set-up: scale not given: the % may be the effect or the level left
[25] = test system: Mast/stem cell growth factor receptor Kit (Homo sapiens), P10721 [L576P]; test: Inhibition of DNA-tagged human KIT L576P mutant assessed as percent of control at 50000 nM by qPCR analysis relative to control; set-up: scale not given: the % may be the effect or the level left
[26] = biological target: Cyclin-dependent kinase 7 (Homo sapiens) (UniProt P50613); test: Inhibition of DNA-tagged human CDK7 assessed as percent of control at 50000 nM by qPCR analysis relative to control; set-up: scale not given: the % may be the effect or the level left
Sequence of Cyclin-dependent kinase 7 (Homo sapiens) (P50613 whole entry): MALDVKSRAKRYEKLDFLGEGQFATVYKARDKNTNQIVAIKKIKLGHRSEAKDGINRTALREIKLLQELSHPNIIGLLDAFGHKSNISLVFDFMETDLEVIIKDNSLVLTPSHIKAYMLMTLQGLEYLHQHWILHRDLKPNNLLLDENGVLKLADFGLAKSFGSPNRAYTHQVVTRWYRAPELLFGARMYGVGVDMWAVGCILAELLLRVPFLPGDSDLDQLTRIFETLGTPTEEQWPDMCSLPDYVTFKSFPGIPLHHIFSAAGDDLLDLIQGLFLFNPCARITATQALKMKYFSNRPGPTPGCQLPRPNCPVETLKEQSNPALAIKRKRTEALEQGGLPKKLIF

[27] = biological target: Serine/threonine-protein kinase PAK 5 (Homo sapiens) (UniProt Q9P286); test: Inhibition of DNA-tagged human PAK7 assessed as percent of control at 50000 nM by qPCR analysis relative to control; set-up: scale not given: the % may be the effect or the level left
Sequence of Serine/threonine-protein kinase PAK 5 (Homo sapiens) (Q9P286 whole entry, looked up): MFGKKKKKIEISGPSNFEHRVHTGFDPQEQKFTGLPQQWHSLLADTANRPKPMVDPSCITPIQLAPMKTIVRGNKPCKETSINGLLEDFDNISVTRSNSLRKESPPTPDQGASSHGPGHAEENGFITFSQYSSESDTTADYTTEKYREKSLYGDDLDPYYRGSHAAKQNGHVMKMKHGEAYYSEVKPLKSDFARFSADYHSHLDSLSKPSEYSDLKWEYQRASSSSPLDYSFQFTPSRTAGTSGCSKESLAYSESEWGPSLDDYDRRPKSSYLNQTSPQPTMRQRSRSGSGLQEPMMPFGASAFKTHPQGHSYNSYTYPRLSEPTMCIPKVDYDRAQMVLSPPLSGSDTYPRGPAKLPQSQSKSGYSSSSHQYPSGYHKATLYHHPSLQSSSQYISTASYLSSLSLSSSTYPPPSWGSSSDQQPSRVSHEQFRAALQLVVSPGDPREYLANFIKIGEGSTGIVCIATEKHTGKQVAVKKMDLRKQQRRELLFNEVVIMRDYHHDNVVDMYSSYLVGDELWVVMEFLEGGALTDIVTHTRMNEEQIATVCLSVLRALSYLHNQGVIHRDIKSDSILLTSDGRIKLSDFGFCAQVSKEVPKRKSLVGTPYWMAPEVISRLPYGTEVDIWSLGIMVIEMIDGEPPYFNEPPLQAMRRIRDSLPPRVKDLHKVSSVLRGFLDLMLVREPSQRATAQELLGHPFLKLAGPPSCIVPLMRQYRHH

[28] = test system: Tyrosine-protein kinase ABL1 (Homo sapiens), P00519 [F317I]; test: Inhibition of DNA-tagged phosphorylated human ABL1 F317I mutant assessed as percent of control at 50000 nM by qPCR analysis relative to control; set-up: scale not given: the % may be the effect or the level left
[29] = biological target: Serine/threonine-protein kinase PLK2 (Homo sapiens) (UniProt Q9NYY3); test: Inhibition of DNA-tagged human PLK2 assessed as percent of control at 50000 nM by qPCR analysis relative to control; set-up: scale not given: the % may be the effect or the level left

Sequence of Activin receptor type-1 (Homo sapiens) (Q04771 whole entry): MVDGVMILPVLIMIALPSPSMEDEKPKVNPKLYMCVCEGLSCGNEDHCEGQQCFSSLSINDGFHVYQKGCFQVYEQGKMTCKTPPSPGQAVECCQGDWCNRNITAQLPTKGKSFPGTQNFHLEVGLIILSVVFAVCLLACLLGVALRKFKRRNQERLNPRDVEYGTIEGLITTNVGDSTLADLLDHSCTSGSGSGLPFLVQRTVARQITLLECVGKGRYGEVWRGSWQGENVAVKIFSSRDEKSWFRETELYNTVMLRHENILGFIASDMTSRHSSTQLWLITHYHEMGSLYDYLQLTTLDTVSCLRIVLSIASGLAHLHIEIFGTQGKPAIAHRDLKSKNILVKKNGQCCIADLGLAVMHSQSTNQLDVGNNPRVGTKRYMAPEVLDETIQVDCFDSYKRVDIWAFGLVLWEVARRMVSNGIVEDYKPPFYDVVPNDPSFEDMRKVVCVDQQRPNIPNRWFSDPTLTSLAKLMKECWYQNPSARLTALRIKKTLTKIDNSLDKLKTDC

Compound: CN1C(=O)/C(=C2/C(=O)Nc3ccccc32)c2ccccc21
- Activity [1]: 99%
- Activity [2]: 100%
- Activity [3]: 92%
- Activity [4]: 51%
- Activity [5]: 100%
- Activity [6]: 84%
- Activity [7]: 94%
- Activity [8]: 96%
- Activity [9]: 95%
- Activity [10]: 86%
- Activity [11]: 100%
- Activity [12]: 100%
- Activity [13]: 100%
- Activity [14]: 99%
- Activity [15]: 75%
- Activity [16]: 75%
- Activity [17]: 89%
- Activity [18]: 91%
- Activity [19]: 75%
- Activity [20]: 92%
- Activity (MV4-11): Active
- Activity [21]: 88%
- Activity [22]: 100%
- Activity [23]: 100%
- Activity [24]: 85%
- Activity [25]: 98%
- Activity [26]: 100%
- Activity [27]: 98%
- Activity [28]: 100%
- Activity [29]: 94%
